These results are taken from ChEMBL document CHEMBL4184197 (Bioorg Med Chem, 2018).

Series [1] deals with T1, Retinoic acid receptor beta (Mus musculus) (UniProt P22605).
T1 sequence (whole entry): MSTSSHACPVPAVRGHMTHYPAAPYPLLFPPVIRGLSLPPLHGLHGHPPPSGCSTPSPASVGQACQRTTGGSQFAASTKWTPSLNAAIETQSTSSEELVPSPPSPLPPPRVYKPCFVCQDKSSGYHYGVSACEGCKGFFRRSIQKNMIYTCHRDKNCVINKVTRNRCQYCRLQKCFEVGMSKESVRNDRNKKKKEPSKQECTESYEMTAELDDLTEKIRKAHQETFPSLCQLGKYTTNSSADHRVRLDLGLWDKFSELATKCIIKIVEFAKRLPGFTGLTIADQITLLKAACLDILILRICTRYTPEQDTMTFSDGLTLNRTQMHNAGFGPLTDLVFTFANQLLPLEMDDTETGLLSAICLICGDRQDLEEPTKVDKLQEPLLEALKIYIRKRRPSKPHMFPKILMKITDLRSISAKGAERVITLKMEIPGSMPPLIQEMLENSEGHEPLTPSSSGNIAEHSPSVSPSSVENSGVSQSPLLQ
Kind of series: Transactivation of mouse Gal4-fused RARbeta-LBD expressed in COS-7 cells after 1 day by bright-Glo reagent based assay relative to control ATRA. In kind it is cell-based.

The target in series [2] is T2, Retinoic acid receptor alpha (Mus musculus) (UniProt P11416).
T2 sequence (whole entry): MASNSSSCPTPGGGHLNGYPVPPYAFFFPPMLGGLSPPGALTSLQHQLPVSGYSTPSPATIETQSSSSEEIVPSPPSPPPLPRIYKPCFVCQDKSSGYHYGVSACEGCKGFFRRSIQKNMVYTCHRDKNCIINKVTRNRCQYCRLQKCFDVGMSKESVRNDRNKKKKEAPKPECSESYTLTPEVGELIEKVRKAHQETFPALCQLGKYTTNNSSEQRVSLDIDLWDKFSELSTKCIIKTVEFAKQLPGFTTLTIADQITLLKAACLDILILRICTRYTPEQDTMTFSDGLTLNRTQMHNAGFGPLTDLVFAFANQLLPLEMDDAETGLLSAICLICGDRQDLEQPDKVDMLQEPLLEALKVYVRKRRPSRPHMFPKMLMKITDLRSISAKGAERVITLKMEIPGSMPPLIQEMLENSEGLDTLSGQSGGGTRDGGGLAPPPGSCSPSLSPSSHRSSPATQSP
As to the kind of experiment: Transactivation of mouse Gal4-fused RARalpha-LBD expressed in COS-7 cells after 1 day by bright-Glo reagent based assay relative to control ATRA. In kind it is cell-based.

For series [3], the target named is T3, Retinoic acid receptor gamma (Mus musculus) (UniProt P18911).
T3 sequence (whole entry): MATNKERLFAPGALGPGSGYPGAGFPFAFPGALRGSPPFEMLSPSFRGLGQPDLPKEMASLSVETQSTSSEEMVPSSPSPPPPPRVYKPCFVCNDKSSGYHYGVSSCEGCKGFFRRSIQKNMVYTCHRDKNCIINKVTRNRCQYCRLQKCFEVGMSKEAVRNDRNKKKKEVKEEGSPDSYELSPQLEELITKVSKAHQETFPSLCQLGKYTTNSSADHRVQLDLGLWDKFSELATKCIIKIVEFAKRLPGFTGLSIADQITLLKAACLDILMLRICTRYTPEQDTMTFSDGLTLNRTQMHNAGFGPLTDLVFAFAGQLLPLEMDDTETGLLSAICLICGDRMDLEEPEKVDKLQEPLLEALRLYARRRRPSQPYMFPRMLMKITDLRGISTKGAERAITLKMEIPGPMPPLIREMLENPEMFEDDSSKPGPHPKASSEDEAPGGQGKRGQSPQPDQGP
As to the kind of experiment: Transactivation of mouse Gal4-fused RARgamma-LBD expressed in COS-7 cells after 1 day by bright-Glo reagent based assay relative to control ATRA. In kind it is cell-based.

A short description of series [4]: Oral bioavailability in Sprague-Dawley rat at 10 mg/kg by LC-MS/MS analysis. As to conditions: in vivo. In kind it is ADME, organism-based.
In a further series the test system is Rattus norvegicus. Kind of series: AUC in Sprague-Dawley rat at 10 mg/kg, po by LC-MS/MS analysis. In kind it is ADME, organism-based. As to conditions: in vivo.

For `CC(C)Oc1c(Cl)cc(C(=O)Nc2ccc(C(=O)O)cc2)cc1Cl`, the Ratio EC50 in series [1] turned out to be 1420; in series [2], 7; in series [3], 823.

For the molecule `COc1c(Cl)cc(C(=O)Nc2ccc(C(=O)O)c(C)c2)cc1OC(C)C`, the Ratio EC50 in series [2] was found to be 4.7.

In the case of `CCOc1c(Cl)cc(C(=O)Nc2ccc(C(=O)O)c(F)c2)cc1Cl`, the Ratio EC50 in series [2] came to 25.

In the case of `COc1c(Cl)cc(C(=O)Nc2ccc(C(=O)O)cc2)cc1Cl`, the Ratio EC50 in series [1] was determined as 9520; in series [2], 30; in series [3], 5850.

On to `CCCCOc1c(Cl)cc(C(=O)Nc2ccc(C(=O)O)cc2)cc1Cl`, for which the results for the Ratio EC50 in series [1], in series [2] and in series [3] were 717, 84 and 1480, respectively.

With `O=C(O)c1ccc(NC(=O)c2cc(Cl)c(OC3CCCC3)c(OC3CCCC3)c2)cc1`, the Ratio EC50 in series [1] is 55; in series [2], 1.7; in series [3], 571.

For `CCOc1c(C(C)(C)C)cc(C(=O)Nc2ccc(C(=O)O)cc2)cc1C(C)(C)C`, in series [2], the Ratio EC50 is 0.2.

`CCOc1c(Cl)cc(C(=O)Nc2ccc(C(=O)O)c(C)c2)cc1OCC1CC1`: in series [2], the Ratio EC50 was 2.6.

For orientation: bioavailability means the share of a dose that reaches the circulation, judged against a reference dose that is usually intravenous. Consider `CCOc1c(Cl)cc(C(=O)Nc2ccc(C(=O)O)cc2)cc1Cl`, for which, in series [4], the bioavailability was over 35%.

Turning to `CC(C)Oc1cc(C(=O)Nc2ccc(C(=O)O)c(F)c2)cc(Cl)c1OC(C)C`, in series [2], the Ratio EC50 was 2.7.

In the case of `CCOc1cc(C(=O)Nc2ccc(C(=O)O)cc2)cc(OC(C)C)c1OCC`, the Ratio EC50 in series [1] stood at 2450; in series [2] it was 29; in series [3] it was 960.

In the case of `CCOc1c(Cl)cc(NC(=O)c2ccc(C(=O)O)cc2)cc1Cl`, the figures for the Ratio EC50 in series [1], in series [2] and in series [3] were 355, 30 and over 108000, respectively.

Regarding `CC1(C)CCC(C)(C)c2c1cc(C(=O)Nc1cc(F)c(C(=O)O)c(F)c1)c(O)c2Cl` [NRX195183], the figures for the Ratio EC50 in series [1], in series [2] and in series [3] were 1560, 11 and 9840, respectively.

What is called AUC is the area under the concentration-time curve, a measure of exposure. For the molecule `CCOc1c(OC(C)C)cc(C(=O)Nc2ccc(C(=O)O)cc2)cc1OC(C)C`, the AUC with Rattus norvegicus turned out to be 783782 ng·min/mL.

Consider `CCOc1c(Br)cc(C(=O)Nc2ccc(C(=O)O)cc2)cc1Br`, for which the Ratio EC50 in series [2] amounted to 5.

Consider `O=C(O)c1ccc(NC(=O)c2cc(Cl)c(O)c(Cl)c2)cc1`, for which the figures for the Ratio EC50 in series [1], in series [2] and in series [3] were 642, 92 and 5000, respectively.

In the case of `CCCOc1c(Cl)cc(C(=O)Nc2ccc(C(=O)O)cc2)cc1Cl`, the figures for the Ratio EC50 in series [1], in series [2] and in series [3] were 139, 15 and 1200, respectively.

Take `COc1c(Cl)cc(C(=O)Nc2ccc(C(=O)O)c(F)c2)cc1OC(C)C`: the Ratio EC50 in series [2] was 6.7.

On to `O=C(O)c1ccc(NC(=O)c2cc(Cl)c(OC3CCC3)c(OC3CCC3)c2)cc1`, for which the Ratio EC50 came to 53 in series [1], 2.4 in series [2] and 1060 in series [3].

Turning to `Cc1cc(NC(=O)c2cc(Cl)c(OC(C)(C)C)c(OC(C)(C)C)c2)ccc1C(=O)O`, the Ratio EC50 in series [2] was 0.64.

Take `CCOc1c(Cl)cc(C(=O)Nc2ccc(C(=O)O)c(C(F)(F)F)c2)cc1Cl`: the Ratio EC50 in series [2] is 1.7.

As to `CCOc1c(OC2CCCC2)cc(C(=O)Nc2ccc(C(=O)O)cc2)cc1OC1CCCC1`, the figures for the Ratio EC50 in series [1], in series [2] and in series [3] were 4200, 29 and 550, respectively.

Turning to `CCOc1c(Cl)cc(C(=O)Nc2ccc(C(=O)O)c(F)c2)cc1OC(C)C`, the Ratio EC50 in series [2] stood at 1.1.

`CCOc1cc(C(=O)Nc2ccc(C(=O)O)cc2)cc(OCC)c1OCC`: the Ratio EC50 in series [1] is 64100; in series [2], 368 to 370; in series [3], 5880.

With `CC(C)(C)Oc1cc(C(=O)Nc2ccc(C(=O)O)cc2)cc(Cl)c1OC(C)(C)C`, the Ratio EC50 turned out to be 38 in series [1], 0.9 in series [2] and 162 in series [3].

As for `CCOc1c(Cl)cc(C(=O)Nc2ccc(C(=O)O)c(O)c2)cc1Cl`, the Ratio EC50 in series [2] amounted to 33.

Take `CCOc1c(Cl)cc(C(=O)Nc2ccc(C(=O)O)c(Cl)c2)cc1Cl`: in series [2], the Ratio EC50 was determined as 151.

Take `CCOc1c(Cl)cc(C(=O)Nc2ccc(C(=O)O)cc2)cc1OC1CCC1`: the Ratio EC50 in series [2] was determined as 1.

On to `CCOc1c(Cl)cc(C(=O)Nc2ccc(C(=O)O)c(C)c2)cc1OC`, for which the Ratio EC50 in series [2] turned out to be 33.

In the case of `CCOc1cc(C(=O)Nc2ccc(C(=O)O)cc2)cc(Cl)c1OC(C)C`, the Ratio EC50 in series [1] is 7.1; in series [2], 2.1; in series [3], 1200.

On to `CC(C)Oc1cc(C(=O)Nc2ccc(C(=O)O)cc2)cc(OC(C)C)c1OC(C)C`, for which the Ratio EC50 was 2600 in series [1], 27 in series [2] and 225 in series [3].

Regarding `CCOc1cc(C(=O)Nc2ccc(C(=O)O)c(C)c2)cc(Cl)c1OC(C)C`, the Ratio EC50 in series [2] amounted to 7.

Take `Cc1cc(NC(=O)c2cc(Cl)c(OC(C)C)c(OC(C)C)c2)ccc1C(=O)O`: in series [2], the Ratio EC50 was 0.97.
